Laboratory results: PubChem BioAssay AID330 (DTP/NCI, 2004)
Values joined by “and” are separate entries in the source; they are usually repeats but may differ in a detail not shown here. Equal values may be shown once. Inconclusive results and toxic doses are left out. The calls were made as follows: active = survival T/C of 150% or more; inactive = T/C below 125% in these data.

Test system: P388 leukemia ip, CD2F1 mice, survival T/C
Experiment: NCI In Vivo Anticancer Drug Screen. Data for tumor model P388 Leukemia (intraperitoneal) in CD2F1 (CDF1) mice
Conditions: endpoint: median survival time, higher = longer survival
In short: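 Mice carrying the transplanted tumor received test compound or vehicle. Survival was recorded in each group, and the value is the treated-group measurement divided by that of the vehicle-treated control group.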

[1] = dose: 50.0 mg/kg/injection, schedule: Q01DX005 (ip), vehicle: saline with Tween-80
[2] = dose: 100.0 mg/kg/injection, schedule: Q01DX005 (ip), vehicle: saline with Tween-80
[3] = dose: 200.0 mg/kg/injection, schedule: Q01DX005 (ip), vehicle: saline with Tween-80

Measured: T/C

CN(C)c1ccc(NC(=O)c2ccccc2O)cc1
inactive: dose: 50.0 mg/kg/injection, schedule: Q01DX009 (ip), vehicle: saline with Tween-80 113 % of control | dose: 100.0 mg/kg/injection, schedule: Q01DX009 (ip), vehicle: saline with Tween-80 104 % of control | dose: 200.0 mg/kg/injection, schedule: Q01DX009 (ip), vehicle: saline with Tween-80 99 % of control

CC(C)C1CCC2(C)CCC3(C)CCC12O3 (stereo not given)
inactive: dose: 12.0 mg/kg/injection, schedule: Q01DX009 (ip), vehicle: Klucel (hydroxypropylcellulose) (HPC) 108 % of control | dose: 24.0 mg/kg/injection, schedule: Q01DX009 (ip), vehicle: Klucel (hydroxypropylcellulose) (HPC) 98 % of control | dose: 48.0 mg/kg/injection, schedule: Q01DX009 (ip), vehicle: Klucel (hydroxypropylcellulose) (HPC) 108 % of control | dose: 96.0 mg/kg/injection, schedule: Q01DX009 (ip), vehicle: Klucel (hydroxypropylcellulose) (HPC) 108 % of control

CCC[CH2][Sn]([CH2]CCC)[S]CC(N)C(=O)O (stereo not given)
inactive: dose: 0.16 mg/kg/injection, schedule: Q01DX005 (ip), vehicle: Klucel (hydroxypropylcellulose) (HPC) 107 % of control | dose: 0.23 mg/kg/injection, schedule: Q01DX005 (ip), vehicle: Klucel (hydroxypropylcellulose) (HPC) 108 % of control | dose: 0.46 mg/kg/injection, schedule: Q01DX005 (ip), vehicle: Klucel (hydroxypropylcellulose) (HPC) 103 % of control and 104 % of control | dose: 0.93 mg/kg/injection, schedule: Q01DX005 (ip), vehicle: Klucel (hydroxypropylcellulose) (HPC) 117 % of control | dose: 3.75 mg/kg/injection, schedule: Q01DX005 (ip), vehicle: Klucel (hydroxypropylcellulose) (HPC) 108 % of control

C/C1=C\CC(O)/C(C)=C/CC2=CCC(C(C)C)C2(C)CC1 (stereo not given)
inactive: dose: 4.0 mg/kg/injection, schedule: Q01DX009 (ip), vehicle: Klucel (hydroxypropylcellulose) (HPC) 101 % of control | dose: 8.0 mg/kg/injection, schedule: Q01DX009 (ip), vehicle: Klucel (hydroxypropylcellulose) (HPC) 101 % of control | dose: 16.0 mg/kg/injection, schedule: Q01DX009 (ip), vehicle: Klucel (hydroxypropylcellulose) (HPC) 102 % of control | dose: 32.0 mg/kg/injection, schedule: Q01DX009 (ip), vehicle: Klucel (hydroxypropylcellulose) (HPC) 102 % of control

N#Cc1[nH]ncc1[N+](=O)[O-]
inactive: dose: 25.0 mg/kg/injection, schedule: Q01DX001 (ip), vehicle: saline with Tween-80 100 % of control | dose: 50.0 mg/kg/injection, schedule: Q01DX001 (ip), vehicle: saline with Tween-80 106 % of control | dose: 100.0 mg/kg/injection, schedule: Q01DX001 (ip), vehicle: saline with Tween-80 101 % of control

CCC1=[N+](C)c2ccccc2C1(C)C
inactive: dose: 25.0 mg/kg/injection, schedule: Q04DX003 (ip), vehicle: saline 100 % of control | dose: 50.0 mg/kg/injection, schedule: Q04DX003 (ip), vehicle: saline 99 % of control | dose: 100.0 mg/kg/injection, schedule: Q04DX003 (ip), vehicle: saline 107 % of control

COC1=CC2CCN3C=C(C#N)C(C#N)CC3C2C=C1OC (stereo not given)
inactive: [1] 95 % of control | [2] 111 % of control | [3] 111 % of control

S=C(Nc1ccc(N=Nc2ccccc2)cc1)SCc1ccc2c(c1)OCO2
inactive: dose: 50.0 mg/kg/injection, schedule: Q01DX009 (ip), vehicle: suspension in saline 96 % of control | dose: 100.0 mg/kg/injection, schedule: Q01DX009 (ip), vehicle: suspension in saline 90 % of control | dose: 200.0 mg/kg/injection, schedule: Q01DX009 (ip), vehicle: suspension in saline 92 % of control

COc1ccc(CC2c3cc(OC)c(OC)c(OC)c3CC[N+]2(C)C)cc1Oc1ccc(CC2c3cc4c(c(OC)c3CCN2C)OCO4)cc1 (stereo not given)
inactive: dose: 3.13 mg/kg/injection, schedule: Q04DX002 (ip), vehicle: saline 99 % of control | dose: 6.25 mg/kg/injection, schedule: Q04DX002 (ip), vehicle: saline 103 % of control

Cc1[nH]c2ccc(N(C)C)cc2c(=O)c1CN(CCO)CCO
inactive: [1] 108 % of control | [2] 100 % of control | [3] 100 % of control

Nc1nc(C2CCCC2)cc(=O)[nH]1
inactive: dose: 50.0 mg/kg/injection, schedule: Q01DX005 (ip), vehicle: Klucel (hydroxypropylcellulose) (HPC) 108 % of control | dose: 100.0 mg/kg/injection, schedule: Q01DX005 (ip), vehicle: Klucel (hydroxypropylcellulose) (HPC) 105 % of control | dose: 200.0 mg/kg/injection, schedule: Q01DX005 (ip), vehicle: Klucel (hydroxypropylcellulose) (HPC) 97 % of control

Cc1nc(C(=O)O)cc([N+](=O)[O-])c1C
inactive: dose: 25.0 mg/kg/injection, schedule: Q01DX009 (ip), vehicle: other 97 % of control | dose: 50.0 mg/kg/injection, schedule: Q01DX009 (ip), vehicle: other 97 % of control | dose: 100.0 mg/kg/injection, schedule: Q01DX009 (ip), vehicle: other 100 % of control | dose: 200.0 mg/kg/injection, schedule: Q01DX009 (ip), vehicle: other 94 % of control
